Drawing on patent US11401278B2, “Macrocyclic indole derivatives” (The Broad Institute, Inc., priority 2017, dated 2022), this text covers IC50 and EC50 for ten compounds.

For data set [1], the system named is SUDHL10. Description: Induction of cytotoxicity (Assay 6), SUDHL10. The note with it: read-out: Cytotox SUDHL10 [M] (median) IC50, CellTiter-Glo, 5 hours, SUDHL10.
The target in the next data set is BCL-XL (Homo sapiens (Human), UniProt Q07817). Description: Protein-protein interaction assay BCL-XL/Bad BH3 peptide (BCL-XL assay, TR-FRET). The format is binding. The note with it: His-BCL-XL / Bad BH3 peptide, median. Here is the method:
Assay 2 Protein-Protein Interaction Assay: BCL-XL/Bad BH3 Peptide (BCL-XL Assay)
The dose-dependent inhibition by the compounds described in this invention of the interaction between BCL-XL and the BH3 domain of Bad (both human) was determined using a steady state binding competition assay with time-resolved fluorescence energy transfer (TR-FRET) readout. For that purpose BCL-XL (amino acids 1-212, C-terminal fused to a hexahistidine (6×His) tag (SEQ ID 3) and a synthetic Bad BH3-derived peptide of sequence Biotin-PEG2-PEG2-NLWAAQRYGRELRR-Nle-SDEFVDSFKK-amide (SEQ ID 4) served as protein receptor and tracer ligand respectively. The recombinant BCL-XL protein (expressed in E. coli) was purchased from BPS Bioscience (San Diego, Calif., USA). The Bad BH3-derived peptide can be obtained from e.g. Biosyntan (Berlin, Germany).
In the assay 11 different concentrations of each compound (0.1 nM, 0.33 nM, 1.1 nM, 3.8 nM, 13 nM, 44 nM, 0.15 μM, 0.51 μM, 1.7 μM, 5.9 μM and 20 μM) were typically measured as duplicates in the same microtiter plate. For that, 100-fold concentrated DMSO solutions were prepared by serial dilutions (1:3.4) of a 2 mM stock solution in a clear, 384-well microtiter plate (Greiner Bio-One, Frickenhausen, Germany). From there, 50 nl were transferred in a dark test plate (Greiner Bio-One, Frickenhausen, Germany). The assay was initiated by addition of 2 μl of a 2.5-fold concentrated His-BCL-XL solution (usually for a 1 nM end concentration in 5 μl reaction volume) in aqueous assay buffer [50 mM Tris/HCl pH 7, 100 mM sodium chloride (NaCl), 50 mM potassium fluoride (KF), 0.005% Tween-20, 2 mM DTT, 0.1% bovine gamma globulin (BGG)] to the compounds in the assay plate. This was followed by a 10-minute incubation step at 22° C. for pre-equilibration of the putative complex between His-BCL-XL and the compounds. After that, 3 μl of a 1.67-fold concentrated solution (in assay buffer) consisting of Bad BH3-derived peptide (1 nM end concentration) and TR-FRET detection reagents [1.67 nM anti-His-Eu cryptate and 1.67 nM streptavidin-XL665 (both from Cisbio Bioassays, Codolet, France)], were added.
The mixture was incubated in the dark for one hour at 22° C. and then overnight at 4° C. The formation of BCL-XL/Bad complexes was determined by measuring the resonance energy transfer of the anti-His- Eu-cryptate antibody to the streptavidin-XL665 present in the reaction. For that purpose, the fluorescence emission at 620 nm and 665 nm after excitation at 330-350 nm was measured in a TR-FRET measuring instrument, for instance a Rubystar or a Pherastar (both from BMG Lab Technologies, Offenburg, Germany) or a Viewlux (Perkin-Elmer). The ratio of the emission at 665 nm and at 622 nm was used as indicator of the amount of BCL-XL/Bad complexes present.
The resulting data (ratio) were normalized, taking 0% inhibition as the mean value of control measurements (usually 32 data points) where all reagents were included. In this case 50 nl DMSO were used instead of compounds. A 100% inhibition corresponded to the mean value of control measurements (usually 32 data points) where all reagents except BCL-XL were included. IC50 values were determined by regression analysis based on a 4 parameter equation (minimum, maximum, IC50, Hill; Y=Max+(Min−Max)/(1+(X/IC50)^HiII) using the Screener Software (Genedata).
For orientation: In TR-FRET formats the signal depends on donor and acceptor labels being close together.

For a further data set, the system named is AMO-1. As to the kind of experiment: Antiproliferation assay (Assay 7), AMO-1. The settings on record: CellTiter-Glo, several values per example. The format is cell-based. An outline of the steps:
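Proliferation over 72 h at 37° C was assessed by luminescent cell viability reagent, referenced to a day 0 plate.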

Data set [2] has as its system SUDHL10. Description: Induction of caspase-3/7 activity (Assay 4), SUDHL10. The format is cell-based. The note with it: caspase-3/7 induction, median. An outline of the steps:
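DLBCL cells were exposed to compounds for 3 hours at 37 °C, then caspase-3/7 activation was read with Caspase-Glo 3/7 reagent. After subtracting medium-only background, EC50s were derived with fixed C0=1 and the reference compound's maximal induction as plateau.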

The mark [3] stands for this setting: Homo sapiens, AMO1, 72 h, read-out: Antiproli AMO-1 [M] IC50.

Structures can show the parent of a compound that is named as a salt. Where two headings read alike, the source gives them in different places.

Chain of BCL-XL (Q07817 other isoform, or with tags, fused parts or gaps): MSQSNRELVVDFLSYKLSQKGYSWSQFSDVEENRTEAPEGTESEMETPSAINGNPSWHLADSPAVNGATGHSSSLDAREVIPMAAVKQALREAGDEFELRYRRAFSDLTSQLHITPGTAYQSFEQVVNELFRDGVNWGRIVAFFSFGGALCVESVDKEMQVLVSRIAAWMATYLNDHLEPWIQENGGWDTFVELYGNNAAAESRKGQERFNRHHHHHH

For `Cc1c2c(nn1C)CN(C)S(=O)(=O)CCCn1c(C(=O)O)c(CCCOc3cccc4ccccc34)c3ccc(Cl)c-2c31` (racemic) [Example 4, (rac)-4-Chloro-2,3,14-trimethyl-7-{3-[(naphthalen-1-yl)oxy]propyl}-13,13-dioxo-10,11,12,13,14,15-hexahydro-2H-13λ^6-pyrazolo[3′,4′:4,5][1,2,8]thiadiazacycloundecino-[6,7,8-hi]indole-8-carboxylic acid], the IC50 (in general, the concentration that inhibits the measured activity by half) in the data set on SUDHL10 [1] is 1.2e-06 M; against BCL-XL it was > 20 µM; with AMO-1 (setting [3]) it was 2.5e-06 M. Further, the response in the data set on SUDHL10 [2] (3 hours) was half-maximal at 1.6 µM (EC50).

In the case of `CCc1c2c(nn1C)CN(C)S(=O)(=O)CCCn1c(C(=O)O)c(CCCOc3cccc4cc(F)ccc34)c3ccc(F)c-2c31` (racemic) [Example 7, (rac)-12-Ethyl-13-fluoro-1-(3-((6-fluoronaphthalen-1-yl)oxy)propyl)-8,11-dimethyl-5,6,9,11-tetrahydro-4H,8H-pyrazolo[3′,4′:4,5][1]thia[2,8]diazacycloundecino[6,7,8-hi]indole-2-carboxylic acid 7,7-dioxide], the IC50 with SUDHL10 [1] (Homo sapiens, SU-DHL10, 5 h) was 9.1e-07 M; against BCL-XL it was > 20 µM; with AMO-1 (72 hours, listed as 07, read-out: Antiproli AMO-1 [M] IC50), 2.2e-06 M; in the data set on AMO-1 (setting [3]) it was 2e-06 M. In addition, the EC50 – broadly, the midpoint of the concentration-response curve – in the data set with SUDHL10 [2] (Homo sapiens, SU-DHL10, 3 h) is 0.74 µM.

Consider `CCc1c2c(nn1C)CN(CCCN1CCCC1=O)S(=O)(=O)CCCn1c(C(=O)O)c(CCCOc3cccc4ccccc34)c3cccc-2c31` (racemic) [Example 13, (rac)-12-Ethyl-11-methyl-1-(3-(naphthalen-1-yloxy)propyl)-8-(3-(2-oxopyrrolidin-1-yl)propyl)-5,6,9,11-tetrahydro-4H,8H-pyrazolo[3′,4′:4,5][1]thia[2,8]diazacycloundecino[6,7,8-hi]indole-2-carboxylic acid 7,7-dioxide], for which the IC50 was 1.7e-05 M in the data set on SUDHL10 [1] (Homo sapiens, SU-DHL10, 5 h); > 20 µM against BCL-XL; > 3.3e-05 M with AMO-1 (setting [3]). Further, it took 16 µM to reach a half-maximal effect in the data set with SUDHL10 [2] (Homo sapiens, SU-DHL10, 3 h) (EC50).

In the case of `CCc1c2c(nn1C)CN(CCN1CCCCC1)S(=O)(=O)CCCn1c(C(=O)O)c(CCCOc3cccc4ccccc34)c3cccc-2c31` (racemic) [Example 14, (rac)-12-Ethyl-11-methyl-1-(3-(naphthalen-1-yloxy)propyl)-8-(2-(piperidin-1-yl)ethyl)-4,5,6,8,9,11-hexahydropyrazolo[3′,4′:4,5][1,2,8]thiadiazacycloundecino[6,7,8-hi]indole-2-carboxylic acid 7,7-dioxide 2,2,2-trifluoroacetic acid salt], the IC50 in the data set with SUDHL10 [1] (Homo sapiens, SU-DHL10, 5 h) is 8.5e-06 M; against BCL-XL, > 20 µM; in the data set with AMO-1 (72 hours, read-out: Antiproli AMO-1 [M] IC50), 1.7e-05 M; in the data set on AMO-1 (setting [3]), 1.9e-05 M. For the same compound, the response with SUDHL10 [2] (Homo sapiens, SU-DHL10, 3 h) was half-maximal at 9.2 µM (EC50).

For the compound `CCc1c2c(nn1C)CN(CCCN1CCOCC1)S(=O)(=O)CCCn1c(C(=O)O)c(CCCOc3cccc4ccccc34)c3cccc-2c31` (racemic) [Example 15, (rac)-12-Ethyl-11-methyl-8-(3-morpholinopropyl)-1-(3-(naphthalen-1-yloxy)propyl)-4,5,6,8,9,11-hexahydropyrazolo[3′,4′:4,5][1,2,8]thiadiazacycloundecino[6,7,8-hi]indole-2-carboxylic acid 7,7-dioxide 2,2,2-trifluoroacetic acid salt], the IC50 was 6.3e-06 M in the data set on SUDHL10 [1] (Homo sapiens, SU-DHL10, 5 h); > 20 µM against BCL-XL; 1.2e-05 M in the data set on AMO-1 (setting [3]). It took 6.4 µM to reach a half-maximal effect with SUDHL10 [2] (Homo sapiens, SU-DHL10, 3 h) (EC50).

Consider `CCc1c2c(nn1C)CN(CCCN1CCCC1)S(=O)(=O)CCCn1c(C(=O)O)c(CCCOc3cccc4ccccc34)c3cccc-2c31` (racemic) [Example 16, (rac)-12-Ethyl-11-methyl-1-(3-(naphthalen-1-yloxy)propyl)-8-(3-(pyrrolidin-1-yl)propyl)-5,6,9,11-tetrahydro-4H,8H-pyrazolo[3′,4′:4,5][1]thia[2,8]diazacycloundecino[6,7,8-hi]indole-2-carboxylic acid 7,7-dioxide], for which the IC50 with SUDHL10 [1] (Homo sapiens, SU-DHL10, 5 h) is > 3.3e-05 M; at BCL-XL, > 20 µM; with AMO-1 (setting [3]) it was > 3.3e-05 M. In the data set on SUDHL10 [2] (Homo sapiens, SU-DHL10, 3 h), the EC50 is > 33 µM.

On to `CCc1c2c(nn1C)CNS(=O)(=O)CCCn1c(C(=O)O)c(CCCOc3cccc4ccccc34)c3cccc-2c31` (racemic) [Example 17, (rac)-12-Ethyl-11-methyl-1-(3-(naphthalen-1-yloxy)propyl)-4,5,6,8,9,11-hexahydropyrazolo[3′,4′:4,5][1,2,8]thiadiazacycloundecino[6,7,8-hi]indole-2-carboxylic acid 7,7-dioxide], for which the IC50 is 1.6e-05 M with SUDHL10 [1] (Homo sapiens, SU-DHL10, 5 h); > 20 µM on BCL-XL; > 3.3e-05 M with AMO-1 (setting [3]). The compound also returned an EC50 with SUDHL10 [2] (Homo sapiens, SU-DHL10, 3 h) of 21 µM.

In the case of `CCc1c2c(nn1C)C(C)N(C)S(=O)(=O)CCCn1c(C(=O)O)c(CCCOc3cccc4ccccc34)c3cccc-2c31` (racemic) [Example 18, 12-Ethyl-8,9,11-trimethyl-1-(3-(naphthalen-1-yloxy)propyl)-5,6,9,11-tetrahydro-4H,8H-pyrazolo[3′,4′:4,5][1]thia[2,8]diazacycloundecino[6,7,8-hi]indole-2-carboxylic acid 7,7-dioxide (Mixture of Stereoisomers)], the IC50 in the data set with SUDHL10 [1] (Homo sapiens, SU-DHL10, 5 h) was 9.2e-06 M; on BCL-XL, > 20 µM; in the data set on AMO-1 (setting [3]) it was 9.6e-06 M. For the same compound, the EC50 in the data set with SUDHL10 [2] (Homo sapiens, SU-DHL10, 3 h) turned out to be 8.4 µM.

As for `Cc1c2c(nn1C)CN(C)S(=O)(=O)CCCn1c(C(=O)O)c(CCCOc3cccc4cc(F)ccc34)c3ccc(F)c-2c31` (racemic) [Example 25, (rac)-13-Fluoro-1-(3-((6-fluoronaphthalen-1-yl)oxy)propyl)-8,11,12-trimethyl-5,6,9,11-tetrahydro-4H,8H-pyrazolo[3′,4′:4,5][1]thia[2,8]diazacycloundecino[6,7,8-hi]indole-2-carboxylic acid 7,7-dioxide], the IC50 with SUDHL10 [1] (Homo sapiens, SU-DHL10, 5 h) is 2e-06 M; against BCL-XL it was > 20 µM; in the data set on AMO-1 (setting [3]), 4.1e-06 M. This compound also displayed an EC50 with SUDHL10 [2] (Homo sapiens, SU-DHL10, 3 h) of 1.5 µM.

For the compound `Cc1c2c(nn1C)CN(C)S(=O)(=O)CCCn1c(C(=O)O)c(CCCOc3cccc4ccccc34)c3ccc(F)c-2c31` (racemic) [Example 26, (rac)-13-Fluoro-8,11,12-trimethyl-1-(3-(naphthalen-1-yloxy)propyl)-5,6,9,11-tetrahydro-4H,8H-pyrazolo[3′,4′:4,5][1]thia[2,8]diazacycloundecino[6,7,8-hi]indole-2-carboxylic acid 7,7-dioxide], the IC50 in the data set on SUDHL10 [1] (Homo sapiens, SU-DHL10, 5 h) is 3.4e-06 M; at BCL-XL, > 20 µM; in the data set on AMO-1 (setting [3]) it was 7.1e-06 M. The same compound came in with an EC50 in the data set on SUDHL10 [2] (Homo sapiens, SU-DHL10, 3 h) of 3.5 µM.
